Experimental data: the supplement of paper PMC10627819

What was measured:
[1] = tested on: S. aureus DSM 20231; test: Bliss interaction score (quartile over a dose matrix) (fitness difference); higher = more antagonism (negative = synergy)
Method in brief: (§1)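 At entry into stationary phase, OD595 was recorded and divided by the robust mean of the no-drug wells on that plate, with any value above 1 set to 1. This gives the fitness measure used throughout. Single-drug fitness was inferred from combination data, and the Bliss score, observed minus product-expected fitness, is shown as quartiles across technical, biological and donor/recipient replicates.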

[2] = tested on: S. aureus Newman; test: as above
Method in brief: as §1

[3] = tested on: B. subtilis 168; test: as above
Method in brief: as §1

[4] = tested on: S. pneumoniae D39V; test: as above
Method in brief: as §1

[5] = tested on: S. aureus Newman; test: fitness (endpoint OD595 vs no drug) (fraction); higher = more growth
Method in brief: (§2)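 Plates with 384 wells were inoculated at OD595 0.01 using 30 µl of TSB, LB Lennox or CY, or 55 µl for S. pneumoniae. Incubation was at 37 °C, with OD595 measured every 30 min for 14 h. Fitness is the stationary-phase transition optical density over the robust mean of no-drug control wells, after first-reading background subtraction; it is capped at 1.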

[6] = tested on: S. pneumoniae D39V; test: as above
Method in brief: as §2

[7] = tested on: B. subtilis 168; test: as above
Method in brief: as §2
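Wherever Bliss interaction score (quartile over a dose matrix) is given: first quartile when negative (synergy) and third quartile when positive (antagonism).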

CCCCCCCCCC(=O)N[C@@H](Cc1c[nH]c2ccccc12)C(=O)N[C@H](CC(N)=O)C(=O)N[C@@H](CC(=O)O)C(=O)N[C@@H]1C(=O)NCC(=O)N[C@@H](CCCN)C(=O)N[C@@H](CC(=O)O)C(=O)N[C@H](C)C(=O)N[C@@H](CC(=O)O)C(=O)NCC(=O)N[C@H](CO)C(=O)N[C@@H]([C@H](C)CC(=O)O)C(=O)N[C@@H](CC(=O)c2ccccc2N)C(=O)O[C@@H]1C [Daptomycin] + C/C(=C\C(=O)OCCCCCCCCC(=O)O)C[C@@H]1OC[C@H](C[C@@H]2O[C@H]2[C@@H](C)[C@H](C)O)[C@@H](O)[C@H]1O [Pseudomonic acid]
Conditions | Bliss interaction score
[1] | -0.0135
[2] | -0.0312
[3] | 0.058
[4] | -0.101

fitness, [5], one replicate
Conditions | first compound 0.125 µg/mL | first compound 0.25 µg/mL | first compound 0.5 µg/mL
partner 0.0313 µg/mL | 0.0598 | 0.0545 | 0.0362
partner 0.0625 µg/mL | 0.0219 | 0.0175 | 0.0123
partner 0.125 µg/mL | 0.0444 | 0.0303 | 0.0061

fitness, [6]
Conditions | first compound 1 µg/mL | first compound 2 µg/mL | first compound 4 µg/mL
partner 0.03 µg/mL | 0.895 | 0.904 | 0.893
partner 0.06 µg/mL | 0.679 | 0.765 | 0.736
partner 0.12 µg/mL | 0.324 | 0.407 | 0.408

CCCCCCCCCC(=O)N[C@@H](Cc1c[nH]c2ccccc12)C(=O)N[C@H](CC(N)=O)C(=O)N[C@@H](CC(=O)O)C(=O)N[C@@H]1C(=O)NCC(=O)N[C@@H](CCCN)C(=O)N[C@@H](CC(=O)O)C(=O)N[C@H](C)C(=O)N[C@@H](CC(=O)O)C(=O)NCC(=O)N[C@H](CO)C(=O)N[C@@H]([C@H](C)CC(=O)O)C(=O)N[C@@H](CC(=O)c2ccccc2N)C(=O)O[C@@H]1C [Daptomycin] + CC(C1CCC(C(O1)OC2C(CC(C(C2O)OC3C(C(C(CO3)(C)O)NC)O)N)N)N)NC [Gentamicin]
main component drawn
Conditions | Bliss interaction score
[1] | 0.0663
[2] | -0.0263
[3] | 0.136
[4] | 0.0772

fitness, one replicate, main component drawn
Conditions | partner 0.0625 µg/mL | partner 0.125 µg/mL | partner 0.25 µg/mL | partner 0.375 µg/mL | partner 0.75 µg/mL | partner 1.5 µg/mL
[5], first compound 0.125 µg/mL | – | – | – | ≥ 1 | ≥ 1 | 0.656
[5], first compound 0.25 µg/mL | – | – | – | ≥ 1 | ≥ 1 | 0.153
[5], first compound 0.5 µg/mL | – | – | – | ≥ 1 | ≥ 1 | 0.237
[7], first compound 1 µg/mL | 0.718 | 0.499 | 0.0176 | – | – | –

main component drawn
Conditions | fitness
[5], first compound 0.125 µg/mL, partner 0.5 µg/mL | 0.926
[5], first compound 0.125 µg/mL, partner 1 µg/mL | ≥ 1
[5], first compound 0.125 µg/mL, partner 2 µg/mL | ≥ 1
[5], first compound 0.25 µg/mL, partner 0.5 µg/mL | 0.947
[5], first compound 0.25 µg/mL, partner 1 µg/mL | ≥ 1
[5], first compound 0.25 µg/mL, partner 2 µg/mL | ≥ 1
[5], first compound 0.5 µg/mL, partner 0.5 µg/mL | 0.949
[5], first compound 0.5 µg/mL, partner 1 µg/mL | 0.993
[5], first compound 0.5 µg/mL, partner 2 µg/mL | ≥ 1
[6], first compound 1 µg/mL, partner 2 µg/mL | 0.952
[6], first compound 1 µg/mL, partner 4 µg/mL | 0.917
[6], first compound 1 µg/mL, partner 8 µg/mL | 0.868
[6], first compound 2 µg/mL, partner 2 µg/mL | 0.956
[6], first compound 2 µg/mL, partner 4 µg/mL | 0.905
[6], first compound 2 µg/mL, partner 8 µg/mL | 0.877
[6], first compound 4 µg/mL, partner 8 µg/mL | 0.724
[7], first compound 0.125 µg/mL, partner 0.0625 µg/mL | 0.905
[7], first compound 0.125 µg/mL, partner 0.25 µg/mL | 0.0486
[7], first compound 0.25 µg/mL, partner 0.0625 µg/mL | 0.906

CCCCCCCCCC(=O)N[C@@H](Cc1c[nH]c2ccccc12)C(=O)N[C@H](CC(N)=O)C(=O)N[C@@H](CC(=O)O)C(=O)N[C@@H]1C(=O)NCC(=O)N[C@@H](CCCN)C(=O)N[C@@H](CC(=O)O)C(=O)N[C@H](C)C(=O)N[C@@H](CC(=O)O)C(=O)NCC(=O)N[C@H](CO)C(=O)N[C@@H]([C@H](C)CC(=O)O)C(=O)N[C@@H](CC(=O)c2ccccc2N)C(=O)O[C@@H]1C [Daptomycin] + CN(C)c1cc(NC(=O)CNC(C)(C)C)c(O)c2c1C[C@H]1C[C@H]3[C@H](N(C)C)C(O)=C(C(N)=O)C(=O)[C@@]3(O)C(O)=C1C2=O [Tigecycline]
Conditions | Bliss interaction score
[1] | 0.0697
[2] | -0.037
[3] | -0.0609
[4] | 0.0991

fitness
Conditions | first compound 0.125 µg/mL | first compound 0.25 µg/mL | first compound 0.5 µg/mL | first compound 1 µg/mL | first compound 2 µg/mL | first compound 4 µg/mL
[5], partner 0.039 µg/mL | 0.932 | 0.984 | 0.917 | – | – | –
[5], partner 0.078 µg/mL | ≥ 1 | 0.988 | 0.987 | – | – | –
[5], partner 0.156 µg/mL | ≥ 1 | 0.997 | 0.991 | – | – | –
[6], partner 0.325 µg/mL | – | – | – | 0.973 | 0.993 | 0.976
[6], partner 0.65 µg/mL | – | – | – | 0.959 | 0.945 | 0.963
[6], partner 1.3 µg/mL | – | – | – | 0.963 | 0.956 | 0.972
[6], partner 2.6 µg/mL | – | – | – | 0.911 | 0.903 | 0.956
[7], partner 0.039 µg/mL | 0.929 | 0.926 | 0.869 | – | – | –
[7], partner 0.078 µg/mL | 0.89 | 0.892 | 0.867 | – | – | –
[7], partner 0.156 µg/mL | 0.904 | 0.905 | 0.885 | – | – | –

fitness, [7], one replicate
Conditions | partner 0.039 µg/mL | partner 0.078 µg/mL | partner 0.125 µg/mL | partner 0.156 µg/mL | partner 0.25 µg/mL | partner 0.5 µg/mL
first compound 0.125 µg/mL | – | – | 0.985 | – | 0.902 | 0.899
first compound 0.25 µg/mL | – | – | 0.974 | – | 0.926 | 0.981
first compound 0.5 µg/mL | – | – | 0.955 | – | 0.944 | 0.989
first compound 1 µg/mL | 0.759 | 0.732 | – | 0.731 | – | –
